Measurements: US5616684A, “Cyclic peptides and use thereof” (priority 1991, dated 1997)
Non-standard residues stand in square brackets, D forms with d. Residues, ends and D or L forms follow the SMILES beside them. 1Nal = N[C@@H](Cc1cccc2ccccc12)C(=O)O; d(aIle) = CC[C@H](C)[C@@H](N)C(=O)O; Pip = O=C(O)[C@@H]1CCCCN1; Aze = O=C(O)[C@@H]1CCN1

How the values were obtained:
[1] = target: T1, endothelin receptor B (ETB) (Bos taurus, UniProt P28088); assay: Assay of Affinity for Receptor (2): Binding Activity on ETB Receptor *1; set-up: key: relative specific activity, Example 8 compound = 100; details: specific activity, binding activity of the compound of Example 8 taken as 100; bovine brain membrane fraction, 125I labeled endothelin-1, 25° C., 1 hour
T1 construct: A membrane fraction prepared from the bovine brain; from tissue; host or cells: bovine brain membrane fraction
T1 sequence (P28088 27-441): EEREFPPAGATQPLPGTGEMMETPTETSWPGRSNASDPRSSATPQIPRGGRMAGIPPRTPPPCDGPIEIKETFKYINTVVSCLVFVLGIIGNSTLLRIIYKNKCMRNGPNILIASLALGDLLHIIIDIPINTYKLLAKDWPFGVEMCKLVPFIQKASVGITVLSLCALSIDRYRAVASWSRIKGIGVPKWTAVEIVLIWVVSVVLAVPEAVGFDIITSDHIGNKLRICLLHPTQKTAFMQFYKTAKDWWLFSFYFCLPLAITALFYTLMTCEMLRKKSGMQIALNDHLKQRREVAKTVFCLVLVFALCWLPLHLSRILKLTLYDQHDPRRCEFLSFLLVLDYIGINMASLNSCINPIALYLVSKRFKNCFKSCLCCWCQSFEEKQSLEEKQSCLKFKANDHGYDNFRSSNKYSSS
Method: Assay of Affinity for Receptor (2) . . . Binding Activity on ETB Receptor *1
A membrane fraction prepared from the bovine brain was diluted to 0.15 mg/ml by using a buffer solution for assay, and 100 μl of the resulting suspension of the membrane fraction was poured into each assay tube to use for assay. To this suspension of the membrane fraction was added 2 μl of 5 nM ^125 I labeled endothelin-1 solution. Further, 3 μl of a test peptide solution was added thereto, followed by incubation at a temperature of 25° C. for 1 hour. Then, the resulting suspension was diluted with 900 μl of the buffer solution for assay cooled with ice, and thereafter separated into a supernatant and a precipitate by centrifugation at 12,000×g for 10 minutes. Cell membranes and an endothelin receptor B (ETB) embedded therein were contained in the precipitate, and radioactive iodine-labeled endothelin bound to the receptor was also recovered in the precipitate. Accordingly, the amount of radioactive iodine-labeled endothelin bound to the endothelin receptor B (ETB) was determined by measuring the amount of radioactive iodine contained in the precipitate with a gamma-ray counter. The numerical value of ETB shown in Table 1 is the value of specific activity, taking the binding activity of the compound of Example 8 on the receptor B as 100.

[2] = system: ETB receptor (guinea pig kidney crude receptor membrane fraction); assay: ETB Radio Receptor Assay *2; format: binding; details: relative activity (Example 8 given as 100), 125I-endothelin-1, 37° C., 90 minutes
Method: ETB Radio Receptor Assay *2
In the endothelin radio receptor assay, guinea pigs' kidneys were used. Guinea pigs (Std Hartrey, male 250 g, Japan SLC Ltd.) were made to have a cerebral concussion and sacrificed by bleeding from carotid arteries to pick up the kidneys and removed fat therefrom to prepare the kidneys. The obtained kidneys were sliced and homogenized by politron homogenizer in 20 ml of 50 mM Tris-HCl buffer [pH 7.4; 20 mM NaHCO3, 0.1 mM PMSF (Phenylmethylsulfonyl Fluoride), 1 mM EDTA (Ethylenediaminetetraacetic acid)] per one kidney. The homogenized kidney was applied to a centrifugation at 1,000×g for 15 minutes and the supernatant was further applied to a centrifugation for 20 minutes at 30,000×g. The resulting precipitate was twice washed with 50 mM Tris-HCl buffer (pH 7.4) containing 0.1 mM PMSF, 1 mM EDTA. The resultant was stored at -80 ° C. as a crude receptor membrane fraction and was used as the suspension in the following buffer when necessary.
740 Bq of ^125 I-endothelin-1 (81.4 TBq/mmol, Du Pont, USA) as a radio ligand, the crude membrane fraction (2.1 μg protein) and samples were added to the following buffer. The reaction was performed at 37° C., for 90 minutes in 0.2 ml of the buffer [50 mM Tris-HCl buffer (pH 7.4) containing 0.1 mM PMSF, 1 mM EDTA, 0.2% bovine serum albumin].
The reaction was stopped by fast filtration on a glass filter (GF/B, Wattman, USA) by Cell Harvestor (290 PHD, Cambridge-Technology, Great Britain), and the filter was three times washed with 50 mM Tris-HCl buffer (pH 7.4). Radio activity remained on the filter was assayed by a gamma counter.

[3] = target: T2, endothelin receptor A (ETA) (Sus scrofa, UniProt Q29010); assay: Assay of Affinity for Receptor (1): Binding Activity on ETA Receptor; set-up: key to Binding Activity on ET Receptor (R. act.) ETA: relative binding activity; reference cyclic pentapeptide = 1.0; details: porcine heart membrane fraction; for Binding Activity on ET Receptor (R. act.) ETA: specific activity, binding activity of cyclo[-D-Glu-Ala-D-aIle-Leu-D-Trp-] taken as 1.0, 125I-labeled endothelin-1, 25° C., 1 hour
T2 construct: A membrane fraction prepared from the porcine heart; from tissue; host or cells: porcine heart membrane fraction
T2 sequence (Q29010 21-427): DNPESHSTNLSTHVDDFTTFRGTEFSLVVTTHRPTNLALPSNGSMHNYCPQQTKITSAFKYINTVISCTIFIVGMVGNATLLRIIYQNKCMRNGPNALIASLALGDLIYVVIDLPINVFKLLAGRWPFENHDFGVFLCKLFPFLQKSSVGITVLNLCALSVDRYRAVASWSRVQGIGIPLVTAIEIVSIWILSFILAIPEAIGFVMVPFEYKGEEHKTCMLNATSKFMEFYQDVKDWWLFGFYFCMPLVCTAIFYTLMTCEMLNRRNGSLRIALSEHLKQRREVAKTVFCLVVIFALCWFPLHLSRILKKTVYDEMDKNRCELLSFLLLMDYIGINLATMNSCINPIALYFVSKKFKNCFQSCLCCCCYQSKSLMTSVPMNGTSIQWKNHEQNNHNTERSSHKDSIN
Method: Assay of Affinity for Receptor (1) . . . Binding Activity on ETA Receptor
A membrane fraction prepared from the porcine heart was diluted to 0.15 mg/ml by using a buffer solution for assay, and 100 μl of the resulting suspension of the membrane fraction was poured into each assay tube to use for assay. To this suspension of the membrane fraction was added 2 μl of 5 nM ^125 I-labeled endothelin-1 solution. Further, 3 μl of a test peptide solution was added thereto, followed by incubation at a temperature of 25° C. for 1 hour. Then, the resulting suspension was diluted with 900 μl of the buffer solution for assay cooled with ice, and thereafter separated into a supernatant and a precipitate by centrifugation at 12,000×g for 10 minutes. Cell membranes and an endothelin receptor A (ETA) embedded therein were contained in the precipitate, and radioactive iodine-labeled endothelin combined with the receptor was also recovered in the precipitate. Accordingly, the amount of radioactive iodine-labeled endothelin combined with the endothelin receptor A (ETA) was determined by measuring the amount of radioactive iodine contained in the precipitate with a gamma-ray counter. The cyclic pentapeptide described in Japanese Patent Application No. 2-413828/1990, cyclo[-D-Glu-Ala-D-aIle-Leu-D-Trp-], was used as a control compound. The numerical value of ETA shown in Table 1 is the value of specific activity, taking the binding activity of this cyclic pentapeptide on the receptor A as 1.0. The binding activity (IC50) of this cyclic pentapeptide on the ETA receptor is 2×10^-6 M.

| Binding Activity on ET Receptor (R. act.) ET8 *1 [1] | Binding Activity on ET Receptor (R. act.) ET8 *2 [2] | Binding Activity on ET Receptor (R. act.) ETA [3] | IC50 ([3]; 125I-labeled endothelin-1) | Structure (SMILES) |
| --- | --- | --- | --- | --- |
| 14 | 34 | 10 |  | CC(C)C[C@@H]1NC(=O)[C@@H](CC(C)C)NC(=O)[C@H](CC(=O)O)NC(=O)[C@H](CC(=O)O)NC(=O)[C@@H](CC(=O)O)NC(=O)[C@@H](Cc2c[nH]c3ccccc23)NC1=O [Example 16, Cyclo[--D--Asp--Asp--Asp--D--Leu--Leu--D--Trp--]] (cyclo(DD[dL]L[dW][dD])) |
| 22 | 18 | 24 |  | CC(C)C[C@@H]1NC(=O)[C@@H](CC(C)C)NC(=O)[C@H](CO)NC(=O)[C@H](Cc2c[nH]c3ccccc23)NC(=O)[C@@H](CC(=O)O)NC(=O)[C@@H](Cc2c[nH]c3ccccc23)NC1=O [Example 37, Cyclo[--D--Asp--Trp--Ser--D--Leu--Leu--D--Trp--]] (cyclo(L[dW][dD]WS[dL])) |
| 11 | 7.7 | 8.3 |  | CC(C)C[C@@H]1NC(=O)[C@@H](CC(C)C)NC(=O)[C@H](CC(=O)O)NC(=O)[C@H](Cc2cccc3ccccc23)NC(=O)[C@@H](CC(=O)O)NC(=O)[C@@H](Cc2c[nH]c3ccccc23)NC1=O [Example 23, Cyclo[--D--Asp--Nal(1)--Asp--D--Leu--Leu--D--Trp--]] (cyclo([1Nal]D[dL]L[dW][dD])) |
| 240 | 100 | 75 |  | CC(C)C[C@@H]1NC(=O)[C@@H](C(C)C)NC(=O)[C@H](CC(=O)O)NC(=O)[C@H](Cc2c[nH]c3ccccc23)NC(=O)[C@@H](CC(=O)O)NC(=O)[C@@H](Cc2c[nH]c3ccccc23)NC1=O [Example 52, Cyclo[--D--Asp--Trp--Asp--D--Val--Leu--D--Trp--]] (cyclo(D[dV]L[dW][dD]W)) |
| 25 | 57 | 30 |  | CC(C)C[C@@H]1NC(=O)[C@@H](CC(C)C)NC(=O)[C@H](CC(=O)O)NC(=O)[C@@H]2CCN2C(=O)[C@@H](CC(=O)O)NC(=O)[C@@H](Cc2c[nH]c3ccccc23)NC1=O [Example 25, Cyclo[--D--Asp--Azc--Asp--D--Leu--Leu--D--Trp--]] (cyclo([Aze]D[dL]L[dW][dD])) |
| 210 | 290 | 100 |  | CC[C@H](C)[C@H]1NC(=O)[C@H](CC(=O)O)NC(=O)[C@H](Cc2c[nH]c3ccccc23)NC(=O)[C@@H](CC(=O)O)NC(=O)[C@@H](Cc2c[nH]c3ccccc23)NC(=O)[C@H](CC(C)C)NC1=O [Example 51, Cyclo[--D--Asp--Trp--Asp--D--aIle--Leu--D--Trp--]] (cyclo(D[d(aIle)]L[dW][dD]W)) |
| 38 | 73 | 25 |  | CC(C)C[C@@H]1NC(=O)[C@@H](CC(C)C)NC(=O)[C@H](CC(=O)O)NC(=O)[C@@H]2CCCCN2C(=O)[C@@H](CC(=O)O)NC(=O)[C@@H](Cc2c[nH]c3ccccc23)NC1=O [Example 26, Cyclo[--D--Asp--Pip--Asp--D--Leu--Leu--D--Trp--]] (cyclo(D[dL]L[dW][dD][Pip])) |
| 40 | 42 | 17 |  | CC(C)C[C@@H]1NC(=O)[C@@H](CC(C)C)NC(=O)[C@@H]2CCCN2C(=O)[C@H](Cc2c[nH]c3ccccc23)NC(=O)[C@@H](CC(=O)O)NC(=O)[C@@H](Cc2c[nH]c3ccccc23)NC1=O [Example 36, Cyclo[--D--Asp--Trp--Pro--D--Leu--Leu--D--Trp--]] (cyclo(L[dW][dD]WP[dL])) |
| less than 1 |  | 1.0 | 2 µM | CC[C@H](C)[C@H]1NC(=O)[C@H](C)NC(=O)[C@@H](CCC(=O)O)NC(=O)[C@@H](Cc2c[nH]c3ccccc23)NC(=O)[C@H](CC(C)C)NC1=O [cyclo[-D-Glu-Ala-D-aIle-Leu-D-Trp-], reference compound] (cyclo(A[d(aIle)]L[dW][dE])) |
| 140 | 67 | 56 |  | CC(C)C[C@@H]1NC(=O)[C@@H](CC(C)C)NC(=O)[C@H](CC(=O)O)NC(=O)[C@@H]2CCCN2C(=O)[C@@H](CC(=O)O)NC(=O)[C@@H](Cc2c[nH]c3ccccc23)NC1=O [Example 9, cyclo[-D-Asp-Pro-Asp-D-Leu-Leu-D-Trp-]] (cyclo(D[dL]L[dW][dD]P)) |
| 52 | 24 | 9.1 |  | CC(C)C[C@@H]1NC(=O)[C@H](Cc2c[nH]c3ccccc23)NC(=O)[C@@H](CC(=O)O)NC(=O)[C@@H](Cc2c[nH]c3ccccc23)NC(=O)[C@H](CC(C)C)NC(=O)[C@@H](CC(C)C)NC1=O [Example 35, Cyclo[--D--Asp--Trp--Leu--D--Leu--Leu--D--Trp--]] (cyclo(L[dL]L[dW][dD]W)) |
